Measurements published in ChEMBL document CHEMBL1201862, “PubChem BioAssay data set” (2004).
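Results reflect a 48-hour exposure of cells in 96-well plates to compound at five concentrations. GI50 is the concentration that inhibits growth by half.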 Active and inactive are the calls of the source. No stated cut-off is given here; in the data, active = GI50 up to about 1.1 µM and inactive = higher.

Legend:
Test in all cases: NCI tumour cell line growth inhibition, 48 h
A498 = test system: A498
CCRF-CEM = test system: CCRF-CEM
HCT-116 = test system: HCT-116
HOP-92 = test system: HOP-92
Hs-578T = test system: Hs-578T
IGROV-1 = test system: IGROV-1
K562 = test system: K562
LOX IMVI = test system: LOX IMVI
OVCAR-8 = test system: OVCAR-8
RPMI-8226 = test system: RPMI-8226
SF-268 = test system: SF-268
SW-620 = test system: SW-620
U-251 = test system: U-251
COLO 205 = test system: COLO 205
NCI/ADR-RES = test system: NCI/ADR-RES
OVCAR-3 = test system: OVCAR-3
SNB-75 = test system: SNB-75
T47D = test system: T47D
BT-549 = test system: BT-549

Measured: GI50

N#Cc1nc(-c2ccccc2O)oc1N
inactive: A498 80.9 µM | CCRF-CEM 16.4 µM | HCT-116 78.2 µM | HOP-92 > 100 µM | Hs-578T 40.9 µM | IGROV-1 40 µM | K562 29.9 µM | LOX IMVI 53.7 µM | OVCAR-8 89.1 µM | RPMI-8226 20.4 µM | SF-268 64.3 µM | SW-620 65 µM | U-251 > 100 µM

COc1ccccc1/C=C1\S/C(=N/Nc2nc(C)c(C(C)=O)s2)NC1=O
inactive: A498 22.8 µM | CCRF-CEM 43.4 µM | COLO 205 22.9 µM | HCT-116 43.3 µM | HOP-92 19.6 µM | Hs-578T 25.4 µM | K562 34 µM | LOX IMVI 43.2 µM | NCI/ADR-RES 43.8 µM | OVCAR-3 26.9 µM | OVCAR-8 33.3 µM | RPMI-8226 30.4 µM | SF-268 22.8 µM | SNB-75 24.5 µM | SW-620 46.1 µM | T47D 25.6 µM | U-251 33.7 µM

COC(=O)c1ccc(OCCn2nnc(C(=O)NN)c2C(=O)NN)cc1
inactive: BT-549 > 100 µM | CCRF-CEM > 100 µM | COLO 205 > 100 µM | HCT-116 > 100 µM | HOP-92 > 100 µM | K562 > 100 µM | LOX IMVI > 100 µM | NCI/ADR-RES > 100 µM | OVCAR-3 > 100 µM | OVCAR-8 > 100 µM | RPMI-8226 > 100 µM | U-251 > 100 µM

CCOC(=O)C(=C=Cc1cccs1)C(=O)c1ccccc1
inactive: A498 19.9 µM | CCRF-CEM 29.1 µM | COLO 205 17.6 µM | HCT-116 14.6 µM | HOP-92 5.15 µM | IGROV-1 17.3 µM | K562 37.4 µM | LOX IMVI 12.4 µM | OVCAR-8 15.8 µM | RPMI-8226 18.3 µM | SF-268 15.9 µM | SNB-75 15.8 µM | SW-620 18 µM | U-251 16.9 µM

CCOC(=O)C(=CNc1ccc(N(C2=NCC(C)S2)c2ccc(F)c(Cl)c2)cc1)C(=O)OCC (stereo unspecified)
inactive: A498 21.9 µM | CCRF-CEM 7.93 µM | COLO 205 17.8 µM | HCT-116 16 µM | HOP-92 18.1 µM | Hs-578T 22.8 µM | IGROV-1 20.5 µM | K562 44.1 µM | LOX IMVI 16.8 µM | NCI/ADR-RES 17.1 µM | OVCAR-3 20.9 µM | OVCAR-8 18.8 µM | RPMI-8226 21.3 µM | SF-268 22.9 µM | SNB-75 20.4 µM | SW-620 20.8 µM | T47D 13.9 µM | U-251 20.8 µM

CC1(C)OC[C@@H]([C@H](C=O)OCc2ccccc2)O1
inactive: A498 > 100 µM | CCRF-CEM > 100 µM | COLO 205 > 100 µM | HCT-116 > 100 µM | HOP-92 > 100 µM | Hs-578T > 100 µM | IGROV-1 > 100 µM | K562 > 100 µM | LOX IMVI > 100 µM | NCI/ADR-RES > 100 µM | OVCAR-3 > 100 µM | OVCAR-8 > 100 µM | RPMI-8226 > 100 µM | SF-268 > 100 µM | SNB-75 > 100 µM | SW-620 > 100 µM | U-251 > 100 µM

Clc1ccc(C2ON=C(c3ccccc3)N2C23CC4CC(CC(C4)C2)C3)c(Cl)c1 (stereo unspecified)
inactive: A498 > 10 µM | CCRF-CEM > 10 µM | COLO 205 > 10 µM | HCT-116 > 10 µM | HOP-92 > 10 µM | Hs-578T > 10 µM | IGROV-1 > 10 µM | K562 > 10 µM | LOX IMVI > 10 µM | NCI/ADR-RES > 10 µM | OVCAR-3 > 10 µM | OVCAR-8 > 10 µM | RPMI-8226 > 10 µM | SF-268 > 10 µM | SNB-75 > 10 µM | SW-620 > 10 µM | T47D > 10 µM | U-251 > 10 µM

COc1ccc(C2OC(c3ccncc3)=NN2C)cc1OC (stereo unspecified)
inactive: A498 33.5 µM | CCRF-CEM > 100 µM | COLO 205 > 100 µM | HCT-116 > 100 µM | HOP-92 48.9 µM | Hs-578T 67 µM | IGROV-1 > 100 µM | K562 > 100 µM | LOX IMVI > 100 µM | NCI/ADR-RES > 100 µM | OVCAR-3 > 100 µM | OVCAR-8 > 100 µM | RPMI-8226 > 100 µM | SF-268 > 100 µM | SW-620 > 100 µM | T47D 67.1 µM | U-251 > 100 µM

COc1cc2nn(-c3ccccc3)nc2c2nonc12
inactive: A498 > 100 µM | CCRF-CEM > 100 µM | COLO 205 > 100 µM | HCT-116 41 µM | Hs-578T 77.3 µM | IGROV-1 > 100 µM | K562 > 100 µM | LOX IMVI 38.8 µM | NCI/ADR-RES > 100 µM | OVCAR-3 > 100 µM | RPMI-8226 > 100 µM | SF-268 > 100 µM | SNB-75 > 100 µM | SW-620 > 100 µM | T47D > 100 µM

C=C(C)[C@@H]1C[C@H]2O[C@](O)(C(=C)CC(=O)/C=C(/C)C[C@@H]3OC(=O)[C@]24O[C@@H]34)[C@H]1O
inactive: A498 > 100 µM | BT-549 > 100 µM | CCRF-CEM > 100 µM | COLO 205 > 100 µM | HCT-116 > 100 µM | IGROV-1 > 100 µM | K562 > 100 µM | LOX IMVI > 100 µM | NCI/ADR-RES > 100 µM | OVCAR-8 > 100 µM | RPMI-8226 > 100 µM | SF-268 > 100 µM | SNB-75 > 100 µM | SW-620 > 100 µM | T47D > 100 µM | U-251 > 100 µM

CCC(C)N1CN(c2ccccc2)C2(CCN(CC3COc4ccccc4O3)CC2)C1=O (stereo unspecified)
inactive: BT-549 14.3 µM | CCRF-CEM 19.9 µM | COLO 205 17.7 µM | HCT-116 15.9 µM | IGROV-1 42.2 µM | K562 16.5 µM | LOX IMVI 23.4 µM | NCI/ADR-RES 17.8 µM | OVCAR-3 15.7 µM | OVCAR-8 26.2 µM | RPMI-8226 13.3 µM | SF-268 48 µM | SNB-75 36.9 µM | SW-620 22.3 µM | T47D 16 µM | U-251 17.7 µM

CC(=O)N1CN2C(=O)CCC2c2ccccc21 (stereo unspecified)
inactive: A498 > 100 µM | CCRF-CEM > 100 µM | COLO 205 > 100 µM | HCT-116 > 100 µM | HOP-92 > 100 µM | Hs-578T > 100 µM | IGROV-1 > 100 µM | K562 > 100 µM | LOX IMVI > 100 µM | NCI/ADR-RES > 100 µM | OVCAR-3 > 100 µM | OVCAR-8 > 100 µM | RPMI-8226 > 100 µM | SF-268 > 100 µM | SNB-75 > 100 µM | SW-620 > 100 µM | T47D > 100 µM | U-251 > 100 µM
